Assay results published in ChEMBL document CHEMBL4342459, “The Race to Bash NASH: Emerging Targets and Drug Development in a Complex Liver Disease” (J Med Chem, 2020).
pIC50: −log10 of the molar value.

What was measured:
[1] = Half life in rat; assay type: ADME; conditions: in vivo
[2] = Oral bioavailability in rat; assay type: ADME, organism-based; conditions: in vivo
[3] = target: T1, Diacylglycerol O-acyltransferase 2 (Homo sapiens, UniProt Q96PD7); assay: Inhibition of recombinant FLAG-tagged human DGAT2 expressed in SF9 cells after 1 hr by TopCount assay
T1 sequence (Q96PD7 whole entry): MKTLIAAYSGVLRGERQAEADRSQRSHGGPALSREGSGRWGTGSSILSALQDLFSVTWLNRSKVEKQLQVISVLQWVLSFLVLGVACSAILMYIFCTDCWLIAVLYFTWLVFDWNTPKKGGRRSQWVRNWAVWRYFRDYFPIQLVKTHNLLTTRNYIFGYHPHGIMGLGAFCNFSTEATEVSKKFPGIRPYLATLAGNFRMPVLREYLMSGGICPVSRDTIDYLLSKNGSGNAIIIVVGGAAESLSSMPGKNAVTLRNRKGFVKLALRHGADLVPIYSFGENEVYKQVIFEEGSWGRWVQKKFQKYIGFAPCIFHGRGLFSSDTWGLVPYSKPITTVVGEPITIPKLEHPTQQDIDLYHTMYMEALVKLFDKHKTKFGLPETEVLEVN

[4] = target: T2, Diacylglycerol O-acyltransferase 1 (Homo sapiens, UniProt O75907); assay: Inhibition of recombinant FLAG-tagged human DGAT1 expressed in SF9 cells after 1 hr by TopCount assay
T2 sequence (O75907 whole entry): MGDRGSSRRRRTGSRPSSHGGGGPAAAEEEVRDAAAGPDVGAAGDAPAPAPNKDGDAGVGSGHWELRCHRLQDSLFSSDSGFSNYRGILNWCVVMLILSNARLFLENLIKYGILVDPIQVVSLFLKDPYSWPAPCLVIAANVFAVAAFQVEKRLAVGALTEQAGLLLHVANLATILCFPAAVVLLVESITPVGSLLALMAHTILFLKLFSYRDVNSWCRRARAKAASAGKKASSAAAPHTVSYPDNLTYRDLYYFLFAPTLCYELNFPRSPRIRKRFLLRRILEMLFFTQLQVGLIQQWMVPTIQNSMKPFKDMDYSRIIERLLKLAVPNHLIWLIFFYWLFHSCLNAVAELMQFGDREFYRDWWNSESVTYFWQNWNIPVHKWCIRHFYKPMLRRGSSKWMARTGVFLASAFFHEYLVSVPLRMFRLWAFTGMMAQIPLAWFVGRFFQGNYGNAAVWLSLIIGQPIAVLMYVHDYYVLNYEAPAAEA

half-life [1] [h]	bioavailability [2] [%]	pIC50 [3]	pIC50 [4]	Structure (SMILES)
3.5	10			CC(C)c1onc(-c2c(Cl)cccc2Cl)c1COc1ccc(/C=C/c2cccc(C(=O)O)c2)c(Cl)c1
		7.10	< 3.52	Cc1nc(C)c(-c2ccc(C3CCC(CC(=O)O)CC3)cc2)nc1C(N)=O (centres undefined) [AZD-7687]
